Where two headings read alike, the source gives them in different places.
What was measured:
[1] = In vivo brain exposure (plasma and brain AUC); conditions: male, mouse, mice, 5 mg/kg, read-out: % BBB (brain exposure, plasma and brain AUC ratio)
Method: For each compound, twenty-four adult male mice, aged 7-8 weeks on the day of experiment, were used for the study and were allocated randomly between the groups. The experiments were performed on 3 groups of animals as described in the table below:
After compound administration, terminal blood was performed at several time points after intraperitoneal (Comp. ex. 3) or oral administration (Ex. 1).
After transcardiac perfusion with phosphate buffered saline, brains were also collected. All the samples were stored at −80° C. until bioanalysis.
The plasma samples were thawed at room temperature (RT), and the samples were protein precipitated with a 2-fold volume of acetonitrile, containing 20 ng/mL phenacetin as an internal standard. The samples were mixed throughout, followed by centrifugation for 20 min at 2,200×g. The supernatants were diluted 1:1 with 150 mM phosphate buffered saline (pH 7.4) and pipetted onto UPLC 96-well plates to wait for the analysis. […]
Levels of the compounds of Comp. Ex. 3 and example 1 were quantified from mouse plasma and brain. Samples were analyzed using a fit-on-purpose bioanalytical method using a UPLC/QE-Orbitrap-Mass Spectroscopy.
The concentration (ng/mL) of the compounds along time was plotted and the area under the curve (AUC) in plasma and brain tissue was calculated using Graphpad Prism™ 5.0. The plasma to brain ratio was calculated as follows: […]

[2] = Plasma levels after oral administration; assay type: in vivo

Row | SMILES | Kp ([1]; PO) | Detected plasma levels of the drug (in words) [2] | Kp ([1]; IP)
1 | N#C[C@@H]1CCCN1C(=O)[C@@H]1C[C@@H](F)CN1C(=O)c1cc(F)c(OCc2ccccc2)c(F)c1 [Example 1, (S)-1-((2S,4R)-1-(4-(benzyloxy)-3,5-difluorobenzoyl)-4-fluoropyrrolidine-2-carbonyl)pyrrolidine-2-carbonitrile] | 0.253 |  | 
2 | COc1cc(C(=O)N2CC(F)(F)C[C@H]2C(=O)N2CCC[C@H]2C#N)cc(OC)c1OCc1ccccc1 [Comp Ex. 3, (S)-1-((2S)-1-(4-(benzyloxy)-3,5-dimethoxybenzoyl)-4,4-difluoropyrrolidine-2-carbonyl)pyrrolidine-2-carbonitrile] |  | very low | 0.21
